In US9956304B2, “Contrast agents, methods for preparing contrast agents, and methods of imaging” (GEORGIA STATE UNIVERSITY RESEARCH FOUNDATION, INC., priority 2012, dated 2018):
Where two headings read alike, the source gives them in different places.

Tests used:
[1] = mouse, in vivo, iv
[2] = In vivo MRI detection limit (kidney/liver enhancement); set-up: species or system mice; conditions: 1.6 μmol/kg
[3] = kidney; Gd-DTPA 0.2 mmol/kg, Gd-ProCA32 0.02 mmol/kg
[4] = Organ distribution and accumulation of Gd3+ by ICP-OES; conditions: 10 minutes post i.v. injection
[5] = human, cited from earlier work
[6] = mice; cited from earlier work
[7] = Arterial input function study, 9.4 T; conditions: mouse, in vivo
[8] = cited from earlier work
[9] = T1- and T2-weighted MRI of liver and blood vessels; type: in vivo, mice; conditions: mouse, in vivo
Description: Because the enhanced T1- and T2-weighted images have different effects of imaging contrast (brighter or darker, respectively), there is an enhanced probability of detecting the targeted tumor tissue. In contrast, the currently available approved liver contrast agents such as Eovist® have a very short fast phase (sec.) and liver uptake phase (approximately 3 min) in human. The mouse halftime is much shorter. Due this limitation, with these agents, it is not possible to obtain both high quality imaging for small animal. For human, their applications are also limited by their low relaxivity and short half-life. It is possible to obtain very high quality imaging by applying our contrast agent to both low and high field strengths such as 0.47-9.4 T.
Longer blood circulation of ProCA will benefit the MRI guided intervention therapy […], since such therapy usually performed for a very long time. Long blood circulation time of ProCA32 in blood also promising for the application of DCE-MRI. Arterial input function (AIF) in DCE-MRI experiment is the key experiment for successful calculating tumor permeability. However, it is hard to accurate determine AIF of current clinically available MRI contrast agents, since the blood circulation time of current clinically available MRI contrast agents is too short. […]

[10] = in vivo; cited from earlier work
[11] = system: uveal melanoma metastasis in liver; set-up: species or system PEDF knockout mice; conditions: mouse, in vivo
integrin = conditions: read-out: binding affinity between RGD and integrin; cited from earlier work
[12] = Fura-2 competition assay (Gd3+ loaded Fura-2); type: binding; conditions: Gd^3+ loaded Fura-2 20 μM, protein 10-20 μM
Description: To test our hypothesis and screening ProCA candidates with highest thermodynamic stability, Gd^3+ binding affinity and metal selectivity of ProCAs were measured by metal-chelator buffer system. ProCA3 variants were purified using Henzl's method with large modification. […] The Tb^3+-binding affinity of calcium-binding protein was measured by Tb^3+-chelator buffer system. Free metal concentration was carefully controlled by the ratio of metal with chelators from 0 to 1. After measured the Kd of Tb^3+, the Kd of Gd^3+ to ProCA is measured by Gd^3+ competition methods. […] To better understanding the properties of our contrast agents, we introduce a tryptophan residue into the ProCA3. […] Thus, D, D, D, E, E in position 1, 3, 5, 9, 12 of EF-hand is the optimized key residues to achieve high Gd^3+ binding affinity.

[13] = mouse, in vivo; cited from earlier work
[14] = read-out: Kd to Gd^3+ (other's result); cited from earlier work
[15] = Gd3+ Kd by FLUO-5N titration and competition; type: binding; conditions: 2 mM nitrilotriacetate buffer; read-out: Kd to Gd^3+
Description: The buffer system contained 2 mM nitrilotriacetate. The fluorescence signal of FLUO-5N increased till it was up to saturation state. The fluorescence signal intensity plots were fitted by hill equation.
The Kd of ProCA1 variants to Gd^3+ was determined by the competition between ProCA1 variants and FLUO-5N. When the concentrations of FLUO-5N and Gd^3+ were fixed, ProCA1 variants were gradually added to the sample solution to compete Gd^3+ with FLUO-5N.
Where Kd1 is the dissociation constant for FLUO-5N, [FLUO-5N]T is the total concentration of FLUO-5N, Kapp is the apparent dissociation constant for protein and Kd2 is the dissociation constant for protein.

What does the source list for [Cl][Gd]([Cl])[Cl] [GdCl3]?
long term Gd^3+ accumulation in organs [1]: much higher accumulation in bone, liver and spleen; organ distribution of Gd^3+ [1]: mainly distributed in the lung and spleen

With O=C([O-])CN(CCN(CC(=O)[O-])CC(=O)O)CCN(CC(=O)[O-])CC(=O)O.[Gd+3] [Gd-DTPA] as the molecule, how does the “kidney enhancement under MRI” value [2] read?
The value was “do not show any significant kidney enhancement”.

What about the “time to maximum cortex enhancement” value [3] of the same molecule?
The value was ≤ 1 min.

And the “time to maximum medulla enhancement” value [3]?
Its value is ≤ 1 min.

And the “organ distribution of Gd^3+” value [4]?
Its value is “mainly accumulated in kidney”.

And the blood half-life [5]?
Its blood half-life is 10 min.

What about the blood half-life [6] of the same molecule?
Its blood half-life is 2 min.

What about the AIF half-life [7] of the same molecule?
Its AIF half-life is “less than 1 min”.

Which “selectivity of Zn^2+ over Gd^3+” value [8] does the source give for O=C([O-])CN(CCN(CC(=O)[O-])CC(=O)[O-])CCN(CC(=O)[O-])CC(=O)[O-].[Na+].[Na+].[Na+].[Zn+2] [Zn-DTPA] here?
Its value is 4.17.

Which “effect on liver signal in T2 weighted MR images” value [9] does the source give for CCOc1ccc(CC(CN(CCN(CC(=O)[O-])CC(=O)[O-])CC(=O)[O-])N(CC(=O)[O-])CC(=O)[O-])cc1.[Gd+3].[Na+].[Na+] (stereo not shown) [Eovist, Gd-EOB-DTPA] here?
Its value is “does not cause such decrease”.

What about the hepatocyte up take [10] of the same molecule?
Its hepatocyte up take is 50%.

What about the “retention time in the liver” value [10] of the same molecule?
Its value is 30 min.

What about the liver uptake phase ([5]; in vivo) of the same molecule?
The liver uptake phase was “approximately 3 min”.

What about the “tumor detection in same mice model” value [11] of the same molecule?
Its value is “No tumor can be detected”.

For Arg-Gly-Asp [RGD], which Kd (integrin) is on record?
Its Kd is ~1000 nM.

With calmodulin as the molecule, how does the “Gd^3+ affinity relative to Fura-2” value [12] read?
Its value is “does not shift the wavelength of Fura-2”.

For [Gd+3] [Free Gd^3+], which LD50 [13] is on record?
Its LD50 is 0.1 mmol/kg.

Which results are given for O=C(O)CN(CC(=O)O)c1ccc(-c2c3cc(F)c(=O)cc-3oc3cc(O)c(F)cc23)cc1OCCOc1cc([N+](=O)[O-])ccc1N(CC(=O)O)CC(=O)O [FLUO-5N]?
Kd [14]: 0.0038 nM; Kd [15]: 0.0052 nM

With CNC[C@H](O)[C@@H](O)[C@H](O)[C@H](O)CO.CNC[C@H](O)[C@@H](O)[C@H](O)[C@H](O)CO.O=C([O-])CN(CCN(CC(=O)[O-])CC(=O)O)CCN(CC(=O)O)C(COCc1ccccc1)C(=O)[O-].[Gd+3] (stereo not shown) [Multihance, Gd-BOPTA] as the molecule, how does the hepatocyte up take [10] read?
The hepatocyte up take was 5%.

What about the “retention time in the liver” value [10] of the same molecule?
Its value is 1 min.
